Measured values reported in patent US20250332173A1, “COMPOUNDS AND METHODS FOR MODULATING NUCLEIC ACID SPLICING” (REMIX THERAPEUTICS INC., priority 2021, published 2025).
Read-outs that look alike come from different tables or passages of the source.

Tests used:
Type in all cases: cell-based, human
MYB = test: HiBiT protein abundance assay, MYB HiBiT K562 cell line; conditions: HiBiT K562 cell line, 24 hours, top dose 10 μM; read-out: Effect on protein abundance, MYB (IC50 category)
In short: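 Endogenous targets in K562 knock-in lines carried a HiBiT tag and were treated for 24 h at 37 °C with 10-point 3-fold dilutions (top 10 μM final, DMSO ≤0.25%). Abundance was read as lytic Nano-Glo HiBiT luminescence. IC50 came from a four-parameter logistic fit of normalized response.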

MYB mRNA = test: RT-qPCR splicing assay, MYB canonical junction (CJ) and alternative junction (AJ) mRNA; conditions: Homo sapiens; for AC50: increase in MYB alternative junction (AJ) mRNA, read-out: MYB AJ AC50
In short: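 Following a 24-hour incubation of A673 or K562 cells with serially diluted compound (3-fold steps, highest final 10 uM), the lysates undergo cDNA synthesis plus qPCR. Canonical and alternative junctions are each quantified against PPIA, GAPDH or GUSB.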

Target C = test: HiBiT protein abundance assay, Target C (Promega Nano-Glo HiBiT Lytic Detection System, knock-in K562 cell line); conditions: Homo sapiens, K562, 24 h, HiBiT K562 cell line, 24 hours, top dose 10 μM; read-out: Effect on protein abundance, Target C (IC50 category)
In short: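 HiBiT knock-in K562 cells (10,000/well) were treated for 24 h at 37 °C with a 10-point 3-fold dilution series, top final concentration 10 μM, DMSO ≤0.25%. Lytic HiBiT luminescence was read, normalized to unmodified K562 and DMSO-treated controls, and IC50 was interpolated from a four-parameter logistic fit.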

[1] = Table 5 panel, canonical junction qPCR, compound concentration having 50% response in CJ decrease, read-out: MYB IC50 (decrease in CJ mRNA levels)
[2] = decrease in MYB canonical junction (CJ) mRNA, RT-qPCR, read-out: MYB CJ IC50

| SMILES | IC50 (MYB) [µM] | IC50 (MYB mRNA; [1]) [µM] | IC50 (MYB mRNA; [2]) [µM] | AC50 (MYB mRNA; RT-qPCR) [µM] | IC50 (Target C) [µM] |
| --- | --- | --- | --- | --- | --- |
| Cc1cn2nc(-c3cc(O)c4c(=O)n(C5CCN(CCF)CC5)ncc4c3)cc(C)c2n1 [Compound 553] | 0.1 to 1 | 0.1 to 1 | 0.1 to 1 | 0.1 to 1 | 0.1 to 1 |
| Cc1cc(-c2cc(F)c3c(=O)n(C4CCNC5(CC5)C4)ncc3c2)cc2cn(C)nc12 (stereo not shown) [Compound 554] | 0.1 to 1 | 0.1 to 1 | 0.1 to 1 | 0.1 to 1 | 0.1 to 1 |
| Cc1nc2c(C)cc(-c3cc(F)c4c(=O)n(C5CCNC6(CC6)C5)ncc4c3)cc2o1 (stereo not shown) [Compound 555] | 0.1 to 1 | 0.1 to 1 | 0.1 to 1 | 0.1 to 1 | 0.1 to 1 |
| Cc1cn2cc(-c3cc(F)c4c(=O)n(C5CCNC6(CC6)C5)ncc4c3)cc(Cl)c2n1 (stereo not shown) [Compound 556] | 0.1 to 1 | 0.1 to 1 | 0.1 to 1 | 0.1 to 1 | 0.1 to 1 |
| Cc1cn2cc(-c3cc(O)c4c(=O)n(C5CCNC6(CC6)C5)ncc4c3)cc(Cl)c2n1 (stereo not shown) [Compound 557] | 0.1 to 1 | 0.1 to 1 | 0.1 to 1 | 0.1 to 1 | 0.1 to 1 |
| CCc1cn(C2CCNCC2)c(=O)c2c(F)cc(-c3cc(F)c4nc(C)cn4c3)cc12 [Compound 558, 4-ethyl-8-fluoro-6-{8-fluoro-2-methylimidazo[1,2-a]pyridin-6-yl}-2-(piperidin-4-yl)isoquinolin-1-one] | 0.1 to 1 | 0.1 to 1 | 0.1 to 1 | 0.1 to 1 | 1 to 10 |
| C=Cc1cn(C2CCNCC2)c(=O)c2c(F)cc(-c3cc(F)c4nc(C)cn4c3)cc12 [Compound 559, 4-ethenyl-8-fluoro-6-{8-fluoro-2-methylimidazo[1,2-a]pyridin-6-yl}-2-(piperidin-4-yl)isoquinolin-1-one] | < 0.1 | < 0.1 | < 0.1 | < 0.1 | 0.1 to 1 |
| Cc1cn2cc(-c3ccc4c(=O)n(C5CCNCC5)ccc4c3)cc(C#N)c2n1 [Compound 560, 2-methyl-6-[1-oxo-2-(piperidin-4-yl)isoquinolin-6-yl]imidazo[1,2-a]pyridine-8-carbonitrile] | 0.1 to 1 | 0.1 to 1 | 0.1 to 1 | 0.1 to 1 | 0.1 to 1 |
| Cc1cc(-c2cc(O)c3c(=O)n(C4CCNC5(CC5)C4)ncc3c2)cc2cn(C)nc12 (stereo not shown) [Compound 561] | 0.1 to 1 | 1 to 10 | 0.1 to 1 | 1 to 10 | 0.1 to 1 |
| Cc1cn2nc(-c3cc4ncn(C5CCNCC5)c(=O)c4cc3F)cc(C)c2n1 [Compound 585, 7-{2,8-dimethylimidazo[1,2-b]pyridazin-6-yl}-6-fluoro-3-(piperidin-4-yl)quinazolin-4-one] | 1 to 10 | 1 to 10 | 1 to 10 | 1 to 10 | 1 to 10 |
| Cc1cn2cc(-c3cc4ncn(C5CCNCC5)c(=O)c4cc3F)cc(F)c2n1 [Compound 586, 6-fluoro-7-{8-fluoro-2-methylimidazo[1,2-a]pyridin-6-yl}-3-(piperidin-4-yl)quinazolin-4-one] | 0.1 to 1 | 0.1 to 1 | 0.1 to 1 | 0.1 to 1 | 1 to 10 |
| Cc1cn2cc(-c3cc(O)c4c(=O)n(C5CCNCC5)cnc4c3)cc(F)c2n1 [Compound 587, 7-{8-fluoro-2-methylimidazo[1,2-a]pyridin-6-yl}-5-hydroxy-3-(piperidin-4-yl)quinazolin-4-one] | < 0.1 | < 0.1 | < 0.1 | < 0.1 | 0.1 to 1 |
| Cc1cn2cc(-c3cc(F)c4c(=O)n(C5CCNCC5)cnc4c3)cc(C#N)c2n1 [Compound 588] | 0.1 to 1 | 0.1 to 1 | 1 to 10 | 0.1 to 1 | 1 to 10 |
| Cc1cn2nc(-c3cc(F)c4c(=O)n(C5CCNC5)cnc4c3)cc(C)c2n1 (stereo not shown) [Compound 589, 7-{2,8-dimethylimidazo[1,2-b]pyridazin-6-yl}-5-fluoro-3-(pyrrolidin-3-yl)quinazolin-4-one] | 1 to 10 | 1 to 10 | 1 to 10 | 1 to 10 | > 10 |
| Cc1cn2nc(-c3cc(F)c4c(=O)n([C@@H]5CCN(C)C6(CC6)C5)ncc4c3)cc(C)c2n1 [Compound 637] | < 0.1 | < 0.1 | < 0.1 | < 0.1 | < 0.1 |
| Cc1cn2nc(-c3cc(F)c4c(=O)n([C@H]5CCN(C)C6(CC6)C5)ncc4c3)cc(C)c2n1 [Compound 638] | 0.1 to 1 | < 0.1 | 0.1 to 1 | < 0.1 | < 0.1 |
| Cc1cn2nc(-c3cc4ccn([C@@H]5CCNC5)c(=O)c4cc3O)cc(C)c2n1 [Compound 640, 6-(2,8-dimethylimidazo[1,2-b]pyridazin-6-yl)-7-hydroxy-2-[(3R)-pyrrolidin-3-yl]isoquinolin-1-one] | < 0.1 | 0.1 to 1 | 0.1 to 1 | 0.1 to 1 | 1 to 10 |
| Cc1cn2nc(-c3cc4ccn([C@H]5CCNC5)c(=O)c4cc3O)cc(C)c2n1 [Compound 641, 6-(2,8-dimethylimidazo[1,2-b]pyridazin-6-yl)-7-hydroxy-2-[(3S)-pyrrolidin-3-yl]isoquinolin-1-one] | < 0.1 | < 0.1 | 0.1 to 1 | < 0.1 | 0.1 to 1 |
| Cc1cn2cc(-c3cc(F)c4c(=O)n([C@@H]5C[C@@H](C)N[C@@H](C)C5)ccc4c3)cc(F)c2n1 [Compound 642, 2-[(2S,6R)-2,6-dimethyl-4-piperidyl]-8-fluoro-6-(8-fluoro-2-methyl-imidazo[1,2-a]pyridin-6-yl)isoquinolin-1-one] | 0.1 to 1 | 0.1 to 1 | 0.1 to 1 | 0.1 to 1 | 1 to 10 |
| Cc1cn2cc(-c3cc(F)c4c(=O)n([C@H]5CNC[C@@H]5F)ccc4c3)cc(F)c2n1 [Compound 644] | 1 to 10 | 0.1 to 1 | 1 to 10 | 0.1 to 1 | > 10 |
| Cc1cn2nc(-c3cc(N)c4c(=O)n([C@H]5CCNC5)ccc4c3)cc(C)c2n1 [Compound 645, 8-amino-6-(2,8-dimethylimidazo[1,2-b]pyridazin-6-yl)-2-[(3S)-pyrrolidin-3-yl]isoquinolin-1-one] | 1 to 10 | 1 to 10 | 1 to 10 | 1 to 10 | > 10 |
| Cc1cn2nc(-c3cc(N)c4c(=O)n([C@@H]5CCNC5)ccc4c3)cc(C)c2n1 [Compound 646, 8-amino-6-(2,8-dimethylimidazo[1,2-b]pyridazin-6-yl)-2-[(3R)-pyrrolidin-3-yl]isoquinolin-1-one] | 1 to 10 | > 10 | 1 to 10 | > 10 | > 10 |
| CNc1cc(-c2cc(C)c3nc(C)cn3n2)cc2ccn([C@H]3CCNC3)c(=O)c12 [Compound 647, 6-(2,8-dimethylimidazo[1,2-b]pyridazin-6-yl)-8-(methylamino)-2-[(3S)-pyrrolidin-3-yl]isoquinolin-1-one] | 1 to 10 | 1 to 10 | 1 to 10 | 1 to 10 | > 10 |
